From ChEMBL document CHEMBL4507317, “Data for DCP probe BAY-899” (2021)

Legend:
[1] = biological target: T1, 5-hydroxytryptamine receptor 1A (Homo sapiens) (UniProt P08908); experiment: 5-HT1A Eurofins Bayer panel; details: Compound concentration 10.0 uM
T1 sequence (whole entry): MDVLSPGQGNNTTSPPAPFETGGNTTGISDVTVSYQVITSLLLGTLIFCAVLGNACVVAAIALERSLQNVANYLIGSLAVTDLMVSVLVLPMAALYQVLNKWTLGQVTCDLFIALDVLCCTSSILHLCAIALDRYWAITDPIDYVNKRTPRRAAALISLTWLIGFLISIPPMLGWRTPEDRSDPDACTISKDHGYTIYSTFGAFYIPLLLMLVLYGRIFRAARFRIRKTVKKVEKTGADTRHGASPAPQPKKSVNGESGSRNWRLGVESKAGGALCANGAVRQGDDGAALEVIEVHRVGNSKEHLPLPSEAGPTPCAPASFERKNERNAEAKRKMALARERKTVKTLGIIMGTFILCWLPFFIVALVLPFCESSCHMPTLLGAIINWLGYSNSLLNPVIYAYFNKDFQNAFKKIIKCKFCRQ

[2] = biological target: Histamine H3 receptor (Homo sapiens) (UniProt Q9Y5N1); experiment: H3 Eurofins Bayer panel; details: Compound concentration 10.0 uM
Sequence of Histamine H3 receptor (Homo sapiens) (Q9Y5N1 whole entry): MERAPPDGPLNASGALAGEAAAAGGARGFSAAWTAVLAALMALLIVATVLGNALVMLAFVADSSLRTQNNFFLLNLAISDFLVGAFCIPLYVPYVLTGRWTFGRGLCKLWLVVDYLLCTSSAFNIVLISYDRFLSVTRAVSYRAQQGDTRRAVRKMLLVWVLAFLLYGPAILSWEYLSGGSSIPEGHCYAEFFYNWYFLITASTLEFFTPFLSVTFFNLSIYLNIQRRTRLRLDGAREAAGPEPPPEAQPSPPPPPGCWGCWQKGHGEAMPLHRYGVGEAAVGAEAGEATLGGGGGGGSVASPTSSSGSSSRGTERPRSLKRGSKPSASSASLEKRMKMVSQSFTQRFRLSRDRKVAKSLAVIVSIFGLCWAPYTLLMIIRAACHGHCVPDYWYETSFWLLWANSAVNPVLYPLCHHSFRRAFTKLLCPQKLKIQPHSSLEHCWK

[3] = biological target: Motilin receptor (Homo sapiens) (UniProt O43193); experiment: Motilin Eurofins Bayer panel; details: Compound concentration 10.0 uM
Sequence of Motilin receptor (Homo sapiens) (O43193 whole entry): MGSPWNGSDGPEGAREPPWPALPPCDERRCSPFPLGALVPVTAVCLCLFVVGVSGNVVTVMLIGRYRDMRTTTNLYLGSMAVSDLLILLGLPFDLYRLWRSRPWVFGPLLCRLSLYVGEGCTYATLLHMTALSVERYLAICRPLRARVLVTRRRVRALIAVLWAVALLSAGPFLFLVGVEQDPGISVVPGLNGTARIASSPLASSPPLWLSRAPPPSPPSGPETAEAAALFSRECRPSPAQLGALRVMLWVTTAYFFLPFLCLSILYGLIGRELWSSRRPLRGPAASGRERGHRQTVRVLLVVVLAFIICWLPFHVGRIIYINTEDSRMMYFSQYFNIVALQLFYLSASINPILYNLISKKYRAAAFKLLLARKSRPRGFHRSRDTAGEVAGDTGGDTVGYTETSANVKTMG

[4] = biological target: T2, Muscarinic acetylcholine receptor M1 (Homo sapiens) (UniProt P11229); experiment: M1 Eurofins Bayer panel; details: Compound concentration 10.0 uM
T2 sequence (whole entry): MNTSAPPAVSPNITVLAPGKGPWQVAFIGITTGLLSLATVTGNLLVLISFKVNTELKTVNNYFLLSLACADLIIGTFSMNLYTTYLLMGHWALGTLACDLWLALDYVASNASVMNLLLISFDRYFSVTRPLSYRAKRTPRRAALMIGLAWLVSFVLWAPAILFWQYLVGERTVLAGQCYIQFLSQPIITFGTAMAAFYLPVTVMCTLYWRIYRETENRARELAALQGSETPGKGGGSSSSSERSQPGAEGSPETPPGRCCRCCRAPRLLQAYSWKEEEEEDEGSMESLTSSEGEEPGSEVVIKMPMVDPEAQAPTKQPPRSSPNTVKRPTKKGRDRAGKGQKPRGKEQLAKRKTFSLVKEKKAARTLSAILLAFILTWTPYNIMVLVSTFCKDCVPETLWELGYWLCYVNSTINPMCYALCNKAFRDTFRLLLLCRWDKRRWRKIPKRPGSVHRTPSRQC

[5] = biological target: P2Y purinoceptor 2 (Homo sapiens) (UniProt P41231); experiment: P2Y2 Eurofins Bayer panel; details: Compound concentration 10.0 uM
Sequence of P2Y purinoceptor 2 (Homo sapiens) (P41231 whole entry): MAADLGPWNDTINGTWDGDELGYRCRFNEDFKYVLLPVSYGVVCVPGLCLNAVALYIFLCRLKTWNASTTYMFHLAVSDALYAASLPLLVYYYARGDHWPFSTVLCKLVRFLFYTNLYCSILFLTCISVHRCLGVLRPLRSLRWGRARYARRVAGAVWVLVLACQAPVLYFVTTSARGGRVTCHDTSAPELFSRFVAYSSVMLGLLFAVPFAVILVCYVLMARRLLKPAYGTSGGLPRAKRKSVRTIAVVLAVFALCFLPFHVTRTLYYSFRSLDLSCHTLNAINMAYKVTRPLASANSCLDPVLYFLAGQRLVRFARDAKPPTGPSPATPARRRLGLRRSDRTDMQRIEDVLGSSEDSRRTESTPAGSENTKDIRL

[6] = biological target: Kappa-type opioid receptor (Homo sapiens, UniProt P41145); experiment: kappa (KOP) Eurofins Bayer panel; details: Compound concentration 10.0 uM
Sequence of Kappa-type opioid receptor (P41145 whole entry): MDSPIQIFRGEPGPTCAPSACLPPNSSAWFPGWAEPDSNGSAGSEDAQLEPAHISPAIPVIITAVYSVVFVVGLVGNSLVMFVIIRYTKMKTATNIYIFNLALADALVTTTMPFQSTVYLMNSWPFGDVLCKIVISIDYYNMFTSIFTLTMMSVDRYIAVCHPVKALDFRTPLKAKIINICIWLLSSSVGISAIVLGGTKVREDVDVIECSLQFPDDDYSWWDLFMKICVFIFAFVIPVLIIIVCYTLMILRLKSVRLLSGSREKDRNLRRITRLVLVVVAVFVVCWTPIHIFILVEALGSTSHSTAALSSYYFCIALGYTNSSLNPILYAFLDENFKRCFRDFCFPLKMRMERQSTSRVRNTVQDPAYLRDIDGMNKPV

[7] = biological target: Histamine H1 receptor (Homo sapiens) (UniProt P35367); experiment: H1 Eurofins Bayer panel; details: Compound concentration 10.0 uM
Sequence of Histamine H1 receptor (Homo sapiens) (P35367 whole entry): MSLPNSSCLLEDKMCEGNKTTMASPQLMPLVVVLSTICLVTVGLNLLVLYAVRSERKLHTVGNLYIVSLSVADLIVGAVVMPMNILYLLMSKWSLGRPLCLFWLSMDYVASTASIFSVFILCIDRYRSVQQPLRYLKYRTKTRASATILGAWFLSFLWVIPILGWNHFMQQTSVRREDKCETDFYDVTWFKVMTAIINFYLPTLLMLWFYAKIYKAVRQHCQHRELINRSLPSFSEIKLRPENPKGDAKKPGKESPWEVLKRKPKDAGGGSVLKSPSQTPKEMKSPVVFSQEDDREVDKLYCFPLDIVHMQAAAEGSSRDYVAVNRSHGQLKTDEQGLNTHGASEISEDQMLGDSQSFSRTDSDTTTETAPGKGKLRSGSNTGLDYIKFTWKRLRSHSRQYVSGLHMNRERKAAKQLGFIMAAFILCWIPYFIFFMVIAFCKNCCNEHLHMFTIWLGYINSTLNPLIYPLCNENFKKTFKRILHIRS

[8] = biological target: Prostaglandin E2 receptor EP3 subtype (Homo sapiens) (UniProt P43115); experiment: EP3 Eurofins Bayer panel; details: Compound concentration 10.0 uM
Sequence of Prostaglandin E2 receptor EP3 subtype (Homo sapiens) (P43115 whole entry): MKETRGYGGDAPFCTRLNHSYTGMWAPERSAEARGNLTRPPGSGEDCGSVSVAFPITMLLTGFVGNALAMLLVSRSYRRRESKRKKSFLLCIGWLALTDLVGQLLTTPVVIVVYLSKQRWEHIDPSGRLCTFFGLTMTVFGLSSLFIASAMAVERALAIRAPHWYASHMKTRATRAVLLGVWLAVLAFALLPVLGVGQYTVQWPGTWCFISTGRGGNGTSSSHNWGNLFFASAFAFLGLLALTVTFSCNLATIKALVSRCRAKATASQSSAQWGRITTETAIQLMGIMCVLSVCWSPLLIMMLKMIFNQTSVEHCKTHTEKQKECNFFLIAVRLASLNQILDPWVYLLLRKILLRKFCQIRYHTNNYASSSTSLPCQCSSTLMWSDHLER

[9] = biological target: Beta-3 adrenergic receptor (Homo sapiens) (UniProt P13945); details: Compound concentration 10.0 uM
Sequence of Beta-3 adrenergic receptor (Homo sapiens) (P13945 whole entry, looked up): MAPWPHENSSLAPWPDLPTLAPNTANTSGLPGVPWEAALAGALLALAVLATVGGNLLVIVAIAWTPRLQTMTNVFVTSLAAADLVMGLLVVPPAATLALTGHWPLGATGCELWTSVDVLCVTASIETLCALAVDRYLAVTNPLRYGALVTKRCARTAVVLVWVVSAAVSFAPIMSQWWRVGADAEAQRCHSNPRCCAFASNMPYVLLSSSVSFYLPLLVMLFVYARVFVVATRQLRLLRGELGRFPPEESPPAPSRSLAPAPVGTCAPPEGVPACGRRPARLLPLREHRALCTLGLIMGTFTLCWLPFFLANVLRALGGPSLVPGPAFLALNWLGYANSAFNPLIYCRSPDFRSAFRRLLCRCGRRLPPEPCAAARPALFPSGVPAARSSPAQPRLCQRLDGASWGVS

[10] = biological target: Delta-type opioid receptor (Homo sapiens) (UniProt P41143); details: Compound concentration 10.0 uM
Sequence of Delta-type opioid receptor (Homo sapiens) (P41143 whole entry): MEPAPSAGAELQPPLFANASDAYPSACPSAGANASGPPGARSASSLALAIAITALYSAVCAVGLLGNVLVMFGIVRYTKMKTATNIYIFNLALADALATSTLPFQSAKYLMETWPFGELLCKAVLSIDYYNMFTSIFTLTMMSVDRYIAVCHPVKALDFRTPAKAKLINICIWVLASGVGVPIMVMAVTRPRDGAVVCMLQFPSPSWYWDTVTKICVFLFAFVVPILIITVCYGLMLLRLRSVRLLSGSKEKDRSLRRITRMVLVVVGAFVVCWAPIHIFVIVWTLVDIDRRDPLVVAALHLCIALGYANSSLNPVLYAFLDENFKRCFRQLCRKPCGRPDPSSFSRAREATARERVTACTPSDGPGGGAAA

[11] = biological target: 5-hydroxytryptamine receptor 2A (Homo sapiens, UniProt P28223); experiment: GPCRScan assay: inhibition of 5-HT2A; set-up: radioligand conc. used [nm] 1.2 – 2.4, parental cells HEKT
Sequence of 5-hydroxytryptamine receptor 2A (P28223 whole entry): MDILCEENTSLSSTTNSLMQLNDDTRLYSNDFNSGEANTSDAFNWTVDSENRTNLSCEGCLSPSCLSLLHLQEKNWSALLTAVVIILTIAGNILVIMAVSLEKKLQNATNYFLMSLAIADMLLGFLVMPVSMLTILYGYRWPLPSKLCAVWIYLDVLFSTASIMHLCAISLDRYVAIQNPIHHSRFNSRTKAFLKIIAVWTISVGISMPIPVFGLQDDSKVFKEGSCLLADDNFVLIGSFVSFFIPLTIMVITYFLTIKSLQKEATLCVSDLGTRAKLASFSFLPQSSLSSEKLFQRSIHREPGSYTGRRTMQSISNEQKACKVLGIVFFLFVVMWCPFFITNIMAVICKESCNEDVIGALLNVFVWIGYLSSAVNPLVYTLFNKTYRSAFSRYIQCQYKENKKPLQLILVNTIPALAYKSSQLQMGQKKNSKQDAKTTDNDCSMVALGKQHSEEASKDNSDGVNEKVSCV

[12] = biological target: 5-hydroxytryptamine receptor 5A (Homo sapiens) (UniProt P47898); details: Compound concentration 10.0 uM
Sequence of 5-hydroxytryptamine receptor 5A (Homo sapiens) (P47898 whole entry): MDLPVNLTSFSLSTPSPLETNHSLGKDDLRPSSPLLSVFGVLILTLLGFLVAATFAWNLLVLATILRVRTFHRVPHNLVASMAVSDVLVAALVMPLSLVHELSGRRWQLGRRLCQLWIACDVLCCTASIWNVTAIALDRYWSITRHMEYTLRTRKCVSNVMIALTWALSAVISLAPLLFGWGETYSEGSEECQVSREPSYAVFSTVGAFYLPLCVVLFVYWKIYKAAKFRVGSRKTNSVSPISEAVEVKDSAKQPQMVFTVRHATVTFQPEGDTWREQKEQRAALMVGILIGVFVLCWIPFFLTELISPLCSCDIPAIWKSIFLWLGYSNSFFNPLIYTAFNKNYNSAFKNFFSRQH

[13] = biological target: 5-hydroxytryptamine receptor 2C (Homo sapiens, UniProt P28335); experiment: GPCRScan assay: inhibition of 5-HT2C; set-up: radioligand conc. used [nm] 1.0 – 2.5, parental cells HEK T
Sequence of 5-hydroxytryptamine receptor 2C (P28335 whole entry): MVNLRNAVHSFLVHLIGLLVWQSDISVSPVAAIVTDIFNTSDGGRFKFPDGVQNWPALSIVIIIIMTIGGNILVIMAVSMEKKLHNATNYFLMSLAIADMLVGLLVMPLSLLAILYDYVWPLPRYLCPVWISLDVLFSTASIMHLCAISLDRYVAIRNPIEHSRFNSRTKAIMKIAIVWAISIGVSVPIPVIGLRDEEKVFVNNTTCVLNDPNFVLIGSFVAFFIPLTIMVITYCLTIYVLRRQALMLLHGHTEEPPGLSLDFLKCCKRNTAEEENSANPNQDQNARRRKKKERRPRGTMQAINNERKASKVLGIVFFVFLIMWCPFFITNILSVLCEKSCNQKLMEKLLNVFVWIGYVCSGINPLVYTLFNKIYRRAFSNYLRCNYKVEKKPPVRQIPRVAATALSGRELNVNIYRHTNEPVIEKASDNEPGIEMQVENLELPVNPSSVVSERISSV

Question: For O=C(Nc1cnc(Oc2ccc(F)cc2)nc1)N1CCc2ncccc2[C@@H]1c1ccc(F)cc1 [BAY-899], which Activation (% of control) [1] is on record?
Answer: Its Activation (% of control) is 1%.

Question: What about the Inhibition (% of control) [1] of the same compound?
Answer: Its Inhibition (% of control) is 0%.

Question: And the Activation (% of control) [2]?
Answer: Its Activation (% of control) is 38%.

Question: And the Inhibition (% of control) [2]?
Answer: The Inhibition (% of control) was -19%.

Question: What about the Activation (% of control) [3] of the same compound?
Answer: The Activation (% of control) was -1%.

Question: What about the Inhibition (% of control) [3] of the same compound?
Answer: The Inhibition (% of control) was 28%.

Question: What about the Activation (% of control) [4] of the same compound?
Answer: The Activation (% of control) was 1%.

Question: And the Inhibition (% of control) [4]?
Answer: Its Inhibition (% of control) is 32%.

Question: And the Activation (% of control) [5]?
Answer: The Activation (% of control) was -1%.

Question: What about the Inhibition (% of control) [5] of the same compound?
Answer: Its Inhibition (% of control) is 8%.

Question: And the Activation (% of control) [6]?
Answer: Its Activation (% of control) is 56%.

Question: What about the Inhibition (% of control) [6] of the same compound?
Answer: The Inhibition (% of control) was -10%.

Question: What about the Activation (% of control) [7] of the same compound?
Answer: The Activation (% of control) was -4%.

Question: And the Inhibition (% of control) [7]?
Answer: The Inhibition (% of control) was 4%.

Question: What about the Activation (% of control) [8] of the same compound?
Answer: Its Activation (% of control) is -1%.

Question: And the Inhibition (% of control) [8]?
Answer: The Inhibition (% of control) was -5%.

Question: With O=C(Nc1ccc(Oc2ccc(F)cc2)cc1)N1CCc2ncccc2[C@H]1c1ccc(F)cc1 [BAY-897] as the compound, how does the inhibition [9] read?
Answer: The inhibition was 29.4%.

Question: And the inhibition [10]?
Answer: Its inhibition is 32.7%.

Question: What about the Ki [11] of the same compound?
Answer: Its Ki is 3.67 µM.

Question: And the inhibition [12]?
Answer: Its inhibition is 7.18%.

Question: What about the Ki [13] of the same compound?
Answer: The Ki was 1.08 µM.
